Values after ≈ are worked out from the molar mass of the structure shown.
Tests used:
[1] = tested on: Streptococcus sp. group D 2041; test: MIC, standard agar-dilution assay; assay type: cell-based
[2] = tested on: Staphylococcus aureus S13E; assay type: cell-based; conditions: agar dilution
Escherichia coli N10 = test: MIC, standard agar-dilution assay; assay type: cell-based
Escherichia coli TEM = test: MIC, standard agar-dilution assay; assay type: cell-based
[3] = tested on: Streptococcus pneumoniae Park 1; assay type: cell-based; conditions: agar dilution
[4] = tested on: Klebsiella pneumoniae KAE; test: MIC, standard agar-dilution assay; assay type: cell-based
[5] = tested on: Streptococcus faecium ATCC 9790; test: MIC, standard agar-dilution assay; assay type: cell-based
[6] = tested on: Haemophilus influenzae 76; test: MIC, standard agar-dilution assay; assay type: cell-based
[7] = tested on: Staphylococcus aureus X400; test: MIC, standard agar-dilution assay; assay type: cell-based
[8] = tested on: Staphylococcus epidermidis EPI1; assay type: cell-based; conditions: agar dilution
[9] = tested on: Staphylococcus epidermidis 222; test: MIC, standard agar-dilution assay; assay type: cell-based
Escherichia coli EC14 = test: MIC, standard agar-dilution assay; assay type: cell-based
[10] = tested on: Staphylococcus aureus NRRL B313; conditions: agar dilution
[11] = tested on: Haemophilus influenzae C.L.; test: MIC, standard agar-dilution assay; assay type: cell-based
[12] = tested on: Klebsiella pneumoniae X68; test: MIC, standard agar-dilution assay; assay type: cell-based
[13] = tested on: Streptococcus pyogenes C203; test: MIC, standard agar-dilution assay; assay type: cell-based
[14] = tested on: Staphylococcus aureus V41; test: MIC, standard agar-dilution assay; assay type: cell-based
[15] = tested on: Klebsiella pneumoniae X26; test: MIC, standard agar-dilution assay; assay type: cell-based

Structure (SMILES)	MIC [1] [mg/L]	MIC [2] [mg/L]	MIC (Escherichia coli N10) [mg/L]	MIC (Escherichia coli TEM) [mg/L]	MIC [3] [mg/L]	MIC [4] [mg/L]	MIC [5] [mg/L]	MIC [6] [mg/L]	MIC [7] [mg/L]	MIC [8] [mg/L]	MIC [9] [mg/L]	MIC (Escherichia coli EC14) [mg/L]	MIC [10] [mg/L]	MIC [11] [mg/L]	MIC [12] [mg/L]	MIC [13] [mg/L]	MIC [14] [mg/L]	MIC [15] [mg/L]
CCCCCCCNC1(C)CC(OC2C(Oc3c4cc5cc3Oc3ccc(cc3Cl)C(O)C(NC(=O)C(CC(C)C)N(C)CCCCCCC)C(=O)NC(CC(N)=O)C(=O)NC5C(=O)NC3C(=O)NC(C(=O)NC(C(=O)O)c5cc(O)cc(O)c5-c5cc3ccc5O)C(O)c3ccc(c(Cl)c3)O4)OC(CO)C(O)C2O)OC(C)C1O (stereo not drawn) [Compound 12, N^van, N^leu --di(n-heptyl)vancomycin]	1 (≈ 0.608 µM)	1 (≈ 0.608 µM)	> 128	> 128	0.5 (≈ 0.304 µM)	> 128	1 (≈ 0.608 µM)	128 (≈ 77.8 µM)	1 (≈ 0.608 µM)	2 (≈ 1.22 µM)	1 (≈ 0.608 µM)	> 128	0.5 (≈ 0.304 µM)	> 128	> 128	0.5 (≈ 0.304 µM)	1 (≈ 0.608 µM)	> 128
CCCCCNC1(C)CC(OC2C(Oc3c4cc5cc3Oc3ccc(cc3Cl)C(O)C3NC(=O)C(NC(=O)C5NC(=O)C(CC(N)=O)NC(=O)C(NC(=O)C(CC(C)C)NC)C(O)c5ccc(c(Cl)c5)O4)c4ccc(O)c(c4)-c4c(O)cc(O)cc4C(C(=O)O)NC3=O)OC(CO)C(O)C2O)OC(C)C1O (stereo not drawn) [Compound 15, N^van --(n-pentyl)vancomycin]	2 (≈ 1.32 µM)	1 (≈ 0.658 µM)	> 128	> 128	0.125 (≈ 0.0823 µM)	> 128	1 (≈ 0.658 µM)	128 (≈ 84.2 µM)	1 (≈ 0.658 µM)	2 (≈ 1.32 µM)	1 (≈ 0.658 µM)	> 128	0.5 (≈ 0.329 µM)	128 (≈ 84.2 µM)	> 128	0.5 (≈ 0.329 µM)	1 (≈ 0.658 µM)	> 128
CCCCCCCCCCNC1(C)CC(OC2C(Oc3c4cc5cc3Oc3ccc(cc3Cl)C(O)C3NC(=O)C(NC(=O)C5NC(=O)C(CC(N)=O)NC(=O)C(NC(=O)C(N)CC(C)C)C(O)c5ccc(c(Cl)c5)O4)c4ccc(O)c(c4)-c4c(O)cc(O)cc4C(C(=O)O)NC3=O)OC(CO)C(O)C2O)OC(C)C1O (stereo not drawn) [Compound 26, N^van --(n-decyl)-A51568A]	0.5 (≈ 0.317 µM)	0.25 (≈ 0.159 µM)	> 128	> 128	0.25 (≈ 0.159 µM)	> 128	0.5 (≈ 0.317 µM)	128 (≈ 81.2 µM)	0.25 (≈ 0.159 µM)	0.5 (≈ 0.317 µM)	0.25 (≈ 0.159 µM)	> 128	0.25 (≈ 0.159 µM)	128 (≈ 81.2 µM)	> 128	0.25 (≈ 0.159 µM)	0.25 (≈ 0.159 µM)	> 128
CCCCCCCCNC1(C)CC(OC2C(Oc3c4cc5cc3Oc3ccc(cc3Cl)C(O)C(NC(=O)C(CC(C)C)N(C)CCCCCCCC)C(=O)NC(CC(N)=O)C(=O)NC5C(=O)NC3C(=O)NC(C(=O)NC(C(=O)O)c5cc(O)cc(O)c5-c5cc3ccc5O)C(O)c3ccc(c(Cl)c3)O4)OC(CO)C(O)C2O)OC(C)C1O (stereo not drawn) [Compound 9, N^van, N^leu --di(n-octyl)vancomycin]	2 (≈ 1.19 µM)	1 (≈ 0.597 µM)	> 128	> 128	1 (≈ 0.597 µM)	> 128	1 (≈ 0.597 µM)	> 128	1 (≈ 0.597 µM)	4 (≈ 2.39 µM)	2 (≈ 1.19 µM)	> 128	1 (≈ 0.597 µM)	> 128	> 128	0.5 (≈ 0.299 µM)	1 (≈ 0.597 µM)	> 128

— patent US4698327A, “Novel glycopeptide derivatives” (priority 1986, dated 1987)
